In patent US6906035B2, “Antimicrobial cationic peptides” (priority 1995, dated 2005):
Where “and” joins values, the source holds several entries; their conditions need not be identical. Equal values may be shown once. Read-outs that look alike come from different tables or passages of the source.

How the values were obtained:
P. aeruginosa [1] = system: P. aeruginosa
Protocol: (§1) FICs are performed by checkerboard titrations of peptides in one dimension of a microtiter plate, and of antibiotics in the other dimension, for example. The FIC is calculated by looking at the impact of one antibiotic on the MIC of the other and vice versa. […] Preferably, an FIC of less than 0.5 is obtained for synergism. As used herein, FIC can be determined as follows: [formula]
(§2) Briefly, cells were grown overnight at 37° C. in LB-S (Luria broth without any salt supplement) and diluted one in 10,000 in the same medium to give concentrations of about 10^4 to 10^5 CFU/ml. The broth dilutions were set up in a 96 well microtiter plate by putting 200 μl of LB-S containing the initial concentration of antibiotic or compound in column 1 and 100 μl of the same medium in columns 2-12. The compounds were diluted by taking 100 μl of broth from column 1 and mixing it with column 2, resulting in a one in two dilution. This was continued to column 10. Finally, 10 μl of bacteria were pipetted into columns 1-11, and the plates incubated overnight at 37° C. The next day the plates were scored for growth in the wells, and the MIC determined.

S. epidermis = settings: S. epidermis
Protocol: as §1, §2

A. calcoaceticus [2] = test: MIC, broth dilution in LB-S; type: cell-based; settings: additional MICs
Protocol: (§3) The biological activity of the peptides can be determined by standard methods known to those of skill in the art, such as “minimal inhibitory concentration (MIC)” assay described in the present examples, whereby the lowest concentration at which no change in OD is observed for a given period of time is recorded as MIC. Alternatively, “fractional inhibitory concentration (FIC)” is also useful for determination of synergy between the peptides of the invention, or the peptides in combination with known antibiotics. FICs are performed by checkerboard titrations of peptides in one dimension of a microtiter plate, and of antibiotics in the other dimension, for example. The FIC is calculated by looking at the impact of one antibiotic on the MIC of the other and vice versa. […] Preferably, an FIC of less than 0.5 is obtained for synergism. As used herein, FIC can be determined as follows: [formula]
as §2

E. cloacae [3] = test: MIC, broth dilution in LB-S; type: cell-based; settings: additional MICs
Protocol: as §3, §2

E. coli = test: MIC, broth dilution in LB-S; type: cell-based
Protocol: as §3, §2

E. faecalis = test: MIC, broth dilution in LB-S; type: cell-based; settings: Table 1b, separate set of experiments
Protocol: as §3, §2

K. pneumoniae = test: MIC, broth dilution in LB-S; type: cell-based; settings: additional MICs
Protocol: as §3, §2

S. aureus = test: MIC, broth dilution in LB-S; type: cell-based
Protocol: as §3, §2

X maltophilia = test: MIC, broth dilution in LB-S; type: cell-based; settings: additional MICs
Protocol: as §3, §2

Candida albicans = test: MIC, broth dilution in LB-S; type: cell-based
Protocol: as §1, §2

E. coli ML 35 = test: Inner membrane permeabilization (ONPG hydrolysis by β-galactosidase); type: cell-based; settings: E. coli ML 35, ONPG
Protocol: Inner membrane permeability was determined by measurement in E. coli ML 35 of β-galactosidase activity using ONPG as a substrate. Normally ONPG cannot pass across the cytoplasmic membrane to permit hydrolysis by the cytoplasmic enzyme β-galactosidase. However, cationic peptides, by permeabilizing the inner membrane, unmasks this enzyme leading to color development as ONP is released. […] Addition of citrate increased the lag time before the peptides were able to permeabilize the membranes. When the experiments were executed in cation adjusted media (CAMHB), the lag time was increased up to 30 minutes.

LPS = test: Dansyl polymyxin displacement assay; type: binding; settings: Dansyl polymyxin displacement from LPS
Description: In addition, the peptides of SEQ ID NO: 5-8 also bound effectively to LPS with high affinity based on Dansyl polymyxin displacement assays (Table 5).

Red Blood Cells = test: Red blood cell lysis; type: cell-based; settings: concentration lysing Red Blood Cells
[4] = α helical content by CD spectra; type: physicochemical
Protocol: α Helical Content of Cationic Peptides by CD Spectra
The α helical content of the peptides were measured in buffer, liposomes and 20% Hexafluoroisopropanol (HFPIP). The liposomes constituted of POPC alone or POPC and POPC and 30% POPG (Table 7).

A. calcoaceticus [5] = settings: agent alone
Protocol: as §1
(§4) Synergism is identified as an FIC of about ≦0.5.

E. cloacae [6] = settings: agent alone
Protocol: as §1, §4

P. aeruginosa [7] = test: microbe, parasite or virus in culture; settings: agent alone
Protocol: as §1, §4

X. maltophila = test: organism not typed; settings: agent alone
Protocol: as §1, §4

CC[C@H](C)[C@H](NC(=O)[C@H](CC(C)C)NC(=O)[C@H](C)NC(=O)[C@@H]1CCCN1C(=O)[C@H](CC(C)C)NC(=O)CNC(=O)[C@@H](NC(=O)[C@@H](NC(=O)[C@H](CC(C)C)NC(=O)[C@@H](NC(=O)[C@H](CCCCN)NC(=O)[C@H](CCCCN)NC(=O)[C@@H](NC(=O)[C@H](C)NC(=O)[C@@H](NC(=O)[C@@H](NC(=O)[C@H](CC(C)C)NC(=O)[C@H](CCCCN)NC(=O)[C@H](CCCCN)NC(=O)[C@@H](NC(=O)[C@H](Cc1ccccc1)NC(=O)[C@H](CO)NC(=O)[C@H](CCCCN)NC(=O)[C@H](Cc1c[nH]c2ccccc12)NC(=O)[C@@H](N)CCCCN)[C@@H](C)CC)[C@@H](C)O)[C@@H](C)O)C(C)C)C(C)C)[C@@H](C)O)[C@@H](C)O)C(=O)N[C@@H](CO)C(=O)O [MBI 29]
MIC (P. aeruginosa [1]; P. aeruginasa (H 103), additional MICs): 4 µg/mL
MIC (P. aeruginosa [1]; P. aeruginosa (H187), Table 1a): 5 µg/mL
MIC (P. aeruginosa [1]; P. aeruginosa (H187), Table 1b, separate set of experiments): 16 µg/mL
MIC (P. aeruginosa [1]; P. aeruginosa (H187), Table 1b, separate set of experiments, listed as MBI 29^me): 8 µg/mL
MIC P. aeruginosa (H187) (P. aeruginosa [1]; P. aeruginosa (H187), Table 6): 1.0 µg/mL
MIC (S. epidermis; Table 1a): 10 µg/mL
MIC (S. epidermis; Table 1b, separate set of experiments): 16 µg/mL
MIC (S. epidermis; Table 1b, separate set of experiments, listed as MBI 29^me): 8 µg/mL
MIC (A. calcoaceticus [2]): 4 µg/mL
MIC (E. cloacae [3]): 2 µg/mL
MIC (E. coli; E. coli 0111:B4, additional MICs): 2 µg/mL
MIC (E. coli; E. coli (UB1005), Table 1a): 3 µg/mL
MIC (E. coli; E. coli (UB1005), Table 1b, separate set of experiments): 4 µg/mL
MIC E. coli (UB 1005) (E. coli; E. coli (UB 1005), Table 6): 0.5 µg/mL
MIC (E. coli; E. coli. Bort, additional MICs): 6 µg/mL
MIC (E. faecalis): 32 µg/mL
MIC (E. faecalis; listed as MBI 29^me): ≧64
MIC (K. pneumoniae): 16 µg/mL
MIC (S. aureus; S. aureus (K 147), Table 1a): 20 µg/mL
MIC (S. aureus; S. aureus (K147), Table 1b, separate set of experiments): 32 µg/mL
MIC (S. aureus; S. aureus (K147), Table 1b, separate set of experiments, listed as MBI 29^me): 16 µg/mL
MIC (S. aureus; S. aureus (SAP0017), Table 1a): 18 µg/mL
MIC (S. aureus; S. aureus (SAP0017), Table 1b, separate set of experiments): 32 µg/mL
MIC (S. aureus; S. aureus (SAP0017), Table 1b, separate set of experiments, listed as MBI 29^me): 16 µg/mL
MIC (X maltophilia): 3 µg/mL
MIC (Candida albicans; Candida albicans (CAN105), Table 1b, separate set of experiments): 32 µg/mL
MIC (Candida albicans; Candida alibicans (CAN105), Table 1a): 40 µg/mL
Lag Time (E. coli ML 35): 66 s
Rate of Hydrolysis (E. coli ML 35): 0.21 ΔAU min^−1
1max (LPS): 40%
RBC Lysis (Red Blood Cells): >55 µg/mL
% α helicity ([4]; 20% HFIP): 50%
% α helicity ([4]; Buffer): 0%
% α helicity ([4]; POPC Liposomes): 16%
% α helicity ([4]; POPC/POPG Liposomes (30% POPG)): 8%
MIC (A. calcoaceticus [5]; A. calcoaceticus isolate 1, strain ATCC 23055): 32 µg/mL and 64 µg/mL
MIC (A. calcoaceticus [5]; A. calcoaceticus isolate 7, strain 8222): 16 µg/mL and 32 µg/mL
MIC (A. calcoaceticus [5]; A. calcoaceticus isolate 8, strain 8223): 16 µg/mL and 32 µg/mL
MIC (A. calcoaceticus [5]; A. calcoaceticus isolate 9, strain 8224): 16 µg/mL and 32 µg/mL
MIC (A. calcoaceticus [5]; A. calcoaceticus isolate 10, strain 8225): 16 µg/mL and 32 µg/mL
MIC (A. calcoaceticus [5]; A. calcoaceticus isolate 11, strain 8226): 16 µg/mL and 32 µg/mL
MIC (E. cloacae [6]; E. cloacae isolate 12, strain ATCC 13047): 32 µg/mL and 64 µg/mL
MIC (E. cloacae [6]; E. cloacae isolate 14, strain 938-2): 32 µg/mL and 16 µg/mL
MIC (E. cloacae [6]; E. cloacae isolate 15, strain B5546): 32 µg/mL
MIC (E. cloacae [6]; E. cloacae isolate 17, strain R4148-2): 16 µg/mL and 32 µg/mL
MIC (E. cloacae [6]; E. cloacae isolate 18, strain 3077): 32 µg/mL
MIC (E. cloacae [6]; E. cloacae isolate 19, strain 3356): 32 µg/mL
MIC (P. aeruginosa [7]; P. aeruginosa isolate 23, strain ATCC 27853): 32 µg/mL and 64 µg/mL
MIC (P. aeruginosa [7]; P. aeruginosa isolate 24, strain 34): 32 µg/mL and 16 µg/mL
MIC (P. aeruginosa [7]; P. aeruginosa isolate 25, strain 923-1): 32 µg/mL and 64 µg/mL
MIC (P. aeruginosa [7]; P. aeruginosa isolate 26, strain 3101): 32 µg/mL and 64 µg/mL
MIC (P. aeruginosa [7]; P. aeruginosa isolate 29, strain 15545): 32 µg/mL and 64 µg/mL
MIC (P. aeruginosa [7]; P. aeruginosa isolate 32, strain W2897-1): 32 µg/mL and 64 µg/mL
MIC (X. maltophila; X. maltophila isolate 35, strain 6): 32 µg/mL and 16 µg/mL
MIC (X. maltophila; X. maltophila isolate 36, strain 16): 32 µg/mL
MIC (X. maltophila; X. maltophila isolate 37, strain 3095): 64 µg/mL
MIC (X. maltophila; X. maltophila isolate 38, strain 7901): 64 µg/mL
MIC (X. maltophila; X. maltophila isolate 39, strain B3110.1): 32 µg/mL
MIC (X. maltophila; X. maltophila isolate 40, strain R1302-1): 32 µg/mL and 64 µg/mL
MIC (X. maltophila; X. maltophila isolate 41, strain R4230): 16 µg/mL and 32 µg/mL
MIC (X. maltophila; X. maltophila isolate 43, strain TF29-2): 16 µg/mL and 32 µg/mL
